{"source": "paper PMC11679033", "about": "“Assessing the Potential Synergistic/Antagonistic Effects of Citrinin and Cannabidiol on SH-SY5Y, HepG2, HEK293 Cell Lines, and Human Lymphocytes” (Toxins, 2024)", "key": {"[1]": {"system": "human peripheral blood lymphocytes", "experiment": "Alkaline comet assay", "type": "cell-based", "conditions": "24 h, CIT 30 µM; for tail intensity, mean value ± SE: CBD 1 µM, bleomycin 1.25 µg/mL", "protocol": "The experimental design included the establishment of lymphocyte cultures, and the 24 h treatments with the test compounds, performed according to the last OECD recommendations, given in the Test Guideline No. 487—In Vitro Mammalian Cell Micronucleus Test.\nThe selection of specific concentrations of test compounds adhered to the guidelines for in vitro genotoxicity testing using comet assay. […] Solutions used in testing were prepared just prior to treatment by dissolving the test compounds in ethanol (Kemika, Zagreb, Croatia).\nTwo independent trials, with six experimental groups each, were conducted. A total of six replicate cultures for every single experimental group were established. This step was carried out as follows: aliquots of heparinized blood (V = 600 μL per culture) were pipetted into a growth medium RPMI-1640 (Gibco, Grand Island, NY, USA) supplemented with 10% fetal calf serum (Gibco, Grand Island, NY, USA) and antibiotics (penicillin and streptomycin; Sigma-Aldrich, Steinheim, Germany). Lymphocytes were stimulated with a mitogen phytohemagglutinin (Remel, Lenexa, KS, USA) in order to induce cell division prior to exposure to the test chemicals. Cultures were maintained in the humidified atmosphere of 5% CO2 at 37 °C (Heraeus Hera Cell 240 incubator; Langenselbold, Germany).\nNegative controls (NCs) were non-treated lymphocytes. Solvent controls (SCs) were lymphocytes treated with ethanol (its final concentration in the culture corresponded to 0.03%). Positive controls (PCs) were lymphocytes treated for 24 h with bleomycin at 1.25 µg/mL (according to [69]). The other three groups were lymphocytes exposed to single CIT, single CBD, and their combination (CIT + CBD, at the same concentrations).\nTreatments with test compounds started 20 h after the initial establishment of the cell cultures and lasted for 24 h. Upon completion of the exposure, aliquots of 100 µL of the treated cultures were pipetted in sterile conditions and used to prepare microgels for the alkaline comet assay. The remaining content of flasks was further processed using Cytokinesis-Block Micronucleus Cytome (CBMN Cyt) Assay."}, "HEK293 cells [2]": {"system": "HEK293 cells", "experiment": "Cell membrane integrity (LDH release), HEK293", "type": "cell-based, human", "conditions": "HEK293, 24 h; CBD 2 μM, CIT 0.05 μM, alone or combined", "protocol": "(§1) Cell membrane integrity was determined after exposure to compounds’ concentrations corresponding to LOAEL concentrations in 24 h by measuring the release of the intracellular lactate dehydrogenase (LDH) and the procedure followed a previously described protocol using The CytoTox-ONE™ Homogeneous Membrane Integrity Assay (Promega, Madison, WI, USA). In short, the cells were seeded in black 96-well plates at a density of 10,000 cells/well one day before the experiment and treated with selected LOAEL concentrations. Triton X-100 at a final concentration of 0.18% (v/v) (stock of 9% in water) was used as a positive control to determine the maximal LDH release. Data were taken from at least two independent experiments (each treatment performed in duplicate or triplicate) and plotted as a percentage of LDH release compared to the determined maximal LDH release, according to the manufacturer’s calculation protocol."}, "[3]": {"experiment": "MTS viability assay, HepG2", "type": "cell-based, human", "conditions": "human, HepG2 cells; HepG2, 24 h exposure, MTS; read-out: IC50 (cytotoxicity)", "protocol": "(§2) Human neuroblastoma SH-SY5Y cells (ECACC 94030304), human hepatocyte carcinoma HepG2 (ECACC 85011430) and human embryonic kidney HEK293 (ECACC 85120602) used in the experiments were obtained from the European Collection of Authenticated Cell Cultures (ECACC) through Sigma-Aldrich (Steinheim, Germany). SH-SY5Y cells were grown in Dulbecco’s Modified Eagle’s Medium F12 containing 15% (v/v) fetal bovine serum (FBS), 2 mM glutamine, 1% (v/v) penicillin/streptomycin (PenStrep solution), and 1% (v/v) non-essential amino acids (NEAA solution). HEK293 and HepG2 cells were grown in EMEM medium (Sigma-Aldrich, Steinheim, Germany) supplemented with 10% (v/v) FBS, 2 mM glutamine, 1% (v/v) PenStrep and 1% (v/v) NEAA. All media and supplements were purchased from Sigma-Aldrich, Steinheim, Germany. Cells were cultured at 37 °C in a 5% CO2 atmosphere, the medium was changed every two days, and passage was carried out according to the manufacturer’s protocol.\n(§3) MTS assay (CellTiter 96® AQueous One Solution Cell Proliferation Assay, Promega, Madison, WI, USA) was used to determine the viability of cells/cytotoxic properties of tested compounds by measuring cells’ mitochondrial succinate dehydrogenase activity. The procedure followed a previously described protocol. In brief, the cells were seeded in transparent 96-well plates at a density of 20,000 cells/well one day before the experiment and treated with tested compounds in concentrations: 0.01, 0.1, 0.5, 1, 2, 5, 10, 25, 50, 100 and 300 µM. Triton X-100 at a final concentration of 0.18% (v/v) (stock of 9% in water; Sigma-Aldrich, Steinheim, Germany) was used as a positive control. After 24 h, treatment with tested compounds and incubation with MTS reagent, the absorbance was read at 492 nm on an Infinite M200PRO (Tecan Group Ltd., Männedorf, Switzerland) plate reader. Data were taken from at least three independent experiments (each treatment performed in duplicate or triplicate) and expressed as percentages (mean ± standard error) of viable cells compared to control (untreated) cells. IC50 values were determined by a nonlinear fit equation predefined in Prism software 8 (GraphPad Software, San Diego, CA, USA).\n(§4) The same method was used to evaluate a potential toxic synergistic effect on cells exposed to a combination of CBD and CIT at approximately LOAEL doses (lowest observed adverse effect level, 1 and 30 μM for SH-SY5Y and HepG2, and 2 and 0.05 μM for HEK293, respectively). There is no official recommendation for CBD oral use, but according to the available literature, we used a dose that corresponded to daily intake, which was 10 mg/kg/day (calculated on a person of 70 kg ~ 1 μM). These selected LOAEL concentrations were used for all other assays as well."}, "HepG2 cells": {"system": "HepG2 cells", "experiment": "Cell membrane integrity (LDH release), HepG2", "type": "cell-based, human", "conditions": "HepG2, 24 h; CBD 1 μM, CIT 30 μM, alone or combined", "protocol": "as §1"}, "HEK293 cells [4]": {"system": "HEK293 cells", "experiment": "MTS viability assay, HEK293", "type": "cell-based, human", "conditions": "HEK293, 24 h; for cell viability at LOAEL concentrations: CBD 2 μM, CIT 0.05 μM, alone or combined", "protocol": "as §2, §3, §4"}, "[5]": {"experiment": "MTS viability assay, HEK293", "type": "cell-based, human", "conditions": "human, HEK293 cells; HEK293, 24 h exposure, MTS; read-out: IC50 (cytotoxicity)", "protocol": "as §2, §3, §4"}, "[6]": {"experiment": "MTS viability assay, SH-SY5Y", "type": "cell-based, human", "conditions": "human, SH-SY5Y cells; SH-SY5Y, 24 h exposure, MTS; read-out: IC50 (cytotoxicity)", "protocol": "as §2, §3, §4"}, "SH-SY5Y cells": {"system": "SH-SY5Y cells", "experiment": "MTS viability assay, SH-SY5Y", "type": "cell-based, human", "conditions": "for IC20: Homo sapiens, established on SH-SY5Y and HepG2 cell models, read-out: IC20 concentration; for lowest observed adverse effect level (LOAEL), approximate / cell viability at LOAEL concentrations: SH-SY5Y, 24 h; for cell viability at LOAEL concentrations: CBD 1 μM, CIT 30 μM, alone or combined", "protocol": "as §2, §3, §4"}}, "note": "Values joined by “and” are separate entries in the source; they are usually repeats but may differ in a detail not shown here. Equal values may be shown once."}
{"smiles": "C=C(C)[C@@H]1CCC(C)=C[C@H]1c1c(O)cc(CCCCC)cc1O", "note": "[CBD, cannabidiol]", "values": [{"measurement": "tail intensity, mean value ± SE", "setting": "[1]", "value": "1.07 ± 0.08", "unit": "%"}, {"measurement": "cell membrane integrity (LDH release)", "setting": "HEK293 cells [2]", "value": "not significantly compromised"}, {"measurement": "IC50 at 24 h", "setting": "[3]", "value": "40 ± 7", "unit": "µM"}, {"measurement": "cell membrane integrity (LDH release)", "setting": "HepG2 cells", "value": "not significantly compromised"}, {"measurement": "lowest observed adverse effect level (LOAEL), approximate", "setting": "HEK293 cells [4]", "value": "~2", "unit": "µM"}, {"measurement": "cell viability at LOAEL concentrations", "setting": "HEK293 cells [4]", "value": "did not independently impact cell viability"}, {"measurement": "IC50 at 24 h", "setting": "[5]", "value": "5 ± 1", "unit": "µM"}, {"measurement": "IC50 at 24 h", "setting": "[6]", "value": "13 ± 2", "unit": "µM"}, {"measurement": "IC20", "setting": "SH-SY5Y cells", "value": "1 µM and 3.15 µg/mL"}, {"measurement": "lowest observed adverse effect level (LOAEL), approximate", "setting": "SH-SY5Y cells", "value": "~ 1 μM"}, {"measurement": "cell viability at LOAEL concentrations", "setting": "SH-SY5Y cells", "value": "did not independently impact cell viability"}]}
{"smiles": "CC1=C2C(=CO[C@H](C)[C@H]2C)C(O)=C(C(=O)O)C1=O", "note": "[CIT, citrinin]", "values": [{"measurement": "group median value of tail intensity", "setting": "[1]", "value": "below 10%"}, {"measurement": "tail intensity, mean value ± SE", "setting": "[1]", "value": "6.56 ± 0.37", "unit": "%"}, {"measurement": "cell membrane integrity (LDH release)", "setting": "HEK293 cells [2]", "value": "not significantly compromised"}, {"measurement": "IC50 at 24 h", "setting": "[3]", "value": "59 ± 9", "unit": "µM"}, {"measurement": "cell membrane integrity (LDH release)", "setting": "HepG2 cells", "value": "not significantly compromised"}, {"measurement": "IC50 fold lower than that of CBD", "setting": "HEK293 cells [4]", "value": 11, "unit": "fold"}, {"measurement": "lowest observed adverse effect level (LOAEL), approximate", "setting": "HEK293 cells [4]", "value": "~0.05", "unit": "µM"}, {"measurement": "cell viability at LOAEL concentrations", "setting": "HEK293 cells [4]", "value": "did not independently impact cell viability"}, {"measurement": "IC50 at 24 h", "setting": "[5]", "value": "0.44 ± 0.02", "unit": "µM"}, {"measurement": "IC50 at 24 h", "setting": "[6]", "value": "52 ± 8", "unit": "µM"}, {"measurement": "IC20", "setting": "SH-SY5Y cells", "value": "30 µM and 7.5 µg/mL"}, {"measurement": "lowest observed adverse effect level (LOAEL), approximate", "setting": "SH-SY5Y cells", "value": "~30", "unit": "µM"}, {"measurement": "cell viability at LOAEL concentrations", "setting": "SH-SY5Y cells", "value": "did not independently impact cell viability"}]}
